From US10604512B2, “3-(1H-indol-2-yl)-1H-indazoles and therapeutic uses thereof” (Samumed, LLC, priority 2015, dated 2020)

How the values were obtained:
Format in all cases: cell-based
SW480 colon cancer cells = assay: Cell viability assay (CellTiter-Blue) in SW480 colon cancer cells; conditions: Homo sapiens, 96 h, four days; for inhibition at 10 µM: given where EC50 >10 μM, read-out: percent inhibition at 10 μM; for EC50: CellTiter-Blue
How it was run: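 Approximately 2×10^3 SW480 cells per well are seeded with compound (8 points, threefold steps, top 10 μM) and incubated four days at 37 °C. CellTiter-Blue is then added for about 3 h and fluorescence read. Non-linear regression gives EC50; for values beyond 10 μM, percent inhibition at that concentration is listed.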

[1] = system: Wnt activity (Sp5-Luc reporter, TCF/LEF binding sites) in SW480 colon carcinoma cells; assay: Screening assay for Wnt activity: Sp5-Luc reporter gene assay in stably transduced SW480 colon carcinoma cells; conditions: Homo sapiens, overnight incubation, 10-point curve from 10 μM
How it was run: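 SW480 cells stably transduced with a luciferase reporter driven by an Sp5 promoter of eight TCF/LEF sites were plated at 4,000 cells/well in 1% FBS medium. They were exposed overnight at 37° C to a 10-point 1:3 dilution series from 10 μM (0.1% DMSO). Luminescence was normalized to DMSO for four-parameter EC50, or percent inhibition at 10 μM.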

[2] = system: Primary human fibroblasts derived from IPF patients (LL29 cells) treated with TGF-β1; assay: Inhibition of the fibrotic process: αSMA staining in TGF-β1-treated primary human fibroblasts from IPF patients (LL29 cells); conditions: Fibroblast, 96 h; for EC50: % αSMA-positive LL29 cells, TGF-β1 20 ng/mL, 4 days
How it was run: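 LL29 IPF-patient fibroblasts in 1% FBS stimulated with TGF-β1 (20 ng/mL) and compound (10 μM–1.87 nM, 0.1% DMSO) for 4 days at 37 °C. SYTOX-positive cells excluded; % αSMA-positive cells imaged, normalized to TGF-β1/DMSO wells; EC50 by nonlinear regression, else % inhibition at 10 μM.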

Compound | inhibition at 10 µM (SW480 colon cancer cells) [%] | EC50 (SW480 colon cancer cells) [nM] | EC50 [1] [nM] | EC50 [2] [nM] | inhibition at 10 µM ([2]; at 10 μM, given where EC50 >10 μM, αSMA, LL29 cells, TGF-β1, 4 days, read-out: percent inhibition at 10 μM) [%]
Fc1cccc(-c2cccc3[nH]c(-c4n[nH]c5ccc(-c6ccncc6)cc45)cc23)c1 [Compound 18, 3-(4-(3-Fluorophenyl)-1H-indol-2-yl)-5-(pyridin-4-yl)-1H-indazole] | 10.2 | > 10000 | 4620 | 5550 | 
CC(C)(C)CC(=O)Nc1cncc(-c2ccc3[nH]nc(-c4cc5c(-c6ccsc6)cccc5[nH]4)c3c2)c1 [Compound 296, 3,3-Dimethyl-N-(5-(3-(4-(thiophen-3-yl)-1H-indol-2-yl)-1H-indazol-5-yl)pyridin-3-yl)butanamide] |  | 970 | 455 | > 10000 | 21
O=C(Nc1cncc(-c2ccc3[nH]nc(-c4cc5c(-c6ccsc6)cccc5[nH]4)c3c2)c1)C1CCCCC1 [Compound 303, N-(5-(3-(4-(Thiophen-3-yl)-1H-indol-2-yl)-1H-indazol-5-yl)pyridin-3-yl) cyclohexanecarboxamide] | 15 | > 10000 | 1150 | 2790 | 
Nc1cncc(-c2ccc3[nH]nc(-c4cc5c(-c6ccoc6)cccc5[nH]4)c3c2)c1 [Compound 311, 5-(3-(4-(Furan-3-yl)-1H-indol-2-yl)-1H-indazol-5-yl)pyridin-3-amine] |  | 294 | 40 | 5040 | 
O=C(Cc1ccccc1)Nc1cncc(-c2ccc3[nH]nc(-c4cc5c(-c6ccoc6)cccc5[nH]4)c3c2)c1 [Compound 318, N-(5-(3-(4-(Furan-3-yl)-1H-indol-2-yl)-1H-indazol-5-yl)pyridin-3-yl)-2-phenylacetamide] | 31.9 | > 10000 | 1120 | 844 | 
c1cc(-c2ccoc2)c2cc(-c3n[nH]c4ccc(-c5cncc(CNCC6CCCC6)c5)cc34)[nH]c2c1 [Compound 333, 1-Cyclopentyl-N-((5-(3-(4-(furan-3-yl)-1H-indol-2-yl)-1H-indazol-5-yl)pyridin-3-yl)methyl)methanamine] | 19.1 | > 10000 | 3760 | 3740 | 
